In patent US7223731B2, “Thrombospondin-1 type 1 repeat polypeptides” (Beth Israel Deaconess Medical Center, Inc., priority 2000, dated 2007):

What was measured:
B16F10 melanoma = experiment: Primary tumor growth assay, B16F10 melanoma; type: in vivo, C57BL/6 mice
Description: The proteins for injection were mixed with Polymyxin B-Agarose (Sigma) for 30 minutes at room temperature to remove endotoxin. The endotoxin levels were less than 0.05 EU/mg as determined using the QCL-1000 assay kit (Biowhittaker, Walkersville, Md.). Proteins were filter-sterilized and the protein concentration was determined prior to injection.
(§1) Five to eight week old C57BL/6 mice (Taconic, Germantown, N.Y.) were acclimated, caged in groups of four or less and their backs were shaved. Cultured B16F10 melanoma or Lewis lung carcinoma cells (1×10^6) were inoculated subcutaneously on the back of each mouse. Tumors were measured with a dial-caliper and the volumes were determined using the formula width^2×length×0.52. The treatment began 4 days after inoculation of the tumor cells. […] The experiments were terminated and mice sacrificed when the control mice began to die, usually at day 16 post-tumor cell injection.
Each treatment group contained six five- to eight-week old C57BL/6 mice. Treatment was initiated four days after subcutaneous injection of 1×10^6 B16F10 melanoma cells. The mice received one IP injection each day of saline, TSR2, TSR2+RFK or TSR2+QFK (SEQ ID NO: 23). A soluble form of the TGFβ receptor (100 μg/mouse/injection) (Smith, J. D. et al., Circulation Research 84:1212–1222, 1999) was included in the saline or TSR2+RFK injections on treatment day 1 and 7 for two additional experimental groups. The recombinant TSR-containing proteins were used at 1.0 mg/kg/day.
Each treatment group contained six five- to eight-week old C57BL/6 mice. Treatment was initiated four days after subcutaneous injections of 1×10^6 B16F10 melanoma cells. The mice received one IP injection each day, of saline, all three type 1 repeats of human TSP-1 [3TSR (TSP1) in FIG. 9] or all three type 1 repeats of mouse TSP-2 [3TSR (TSP2) in FIG. 9]. Recombinant proteins were used at a dose of 2.5 mg/kg/day.

Lewis lung carcinoma = experiment: Primary tumor growth assay, Lewis lung carcinoma; type: in vivo, C57BL/6 mice; details: 2.5 mg/kg/day IP daily, treatment day 12
Description: as §1, with “The proteins for injection were mixed with Polymyxin B-Agarose (Sigma) for 30 minutes at room temperature to remove endotoxin. The endotoxin levels were less than 0.05 EU/mg as determined using the QCL-1000 assay kit (Biowhittaker, Walkersville, Md.). Proteins were filter-sterilized and the protein concentration was determined prior to injection. Five” for “Five”

[1] = tested on: Human dermal microvessel endothelial cells (HDMEC); experiment: In vitro endothelial cell migration assay (FGF-2 induced, transwell); type: cell-based
Description: Human dermal microvessel endothelial cells (HDMEC) were isolated by the procedure of Richard et al., Exp. Cell Res. 240:1–6 (1998). The cells were cultured in Vitrogen precoated dishes, and maintained in EBM (Clonetics Corp, San Diego, Calif.) containing 20% fetal bovine serum (FBS), 1 mg/ml hydrocortisone acetate, 5×10^−5 M dibutyryl-cAMP, 200 U/ml penicillin, 100 U/ml streptomycin, 250 mg/ml amphotericin and 2–5 ng/ml VEGF. Murine melanoma B16F10 and murine Lewis lung carcinoma cells were obtained from the ATCC, and were maintained in Dulbecco's Modified Eagle Media (DMEM) supplemented with 10% FBS, […] penicillin, 50 U/ml streptomycin, and 2 mM glutamine (supplemented DMEM). Mink lung epithelial cells (MLECs-Clone 32) that have been stably transfected with an 800 bp fragment of the plasminogen activator inhibitor-1 (PAI-1) promoter fused to the firefly luciferase reporter gene were kindly provided by Dr. Daniel Rifkin (Abe, M. et al., Anal. Biochem. 216:276–284, 1994). The transfected MLECs were maintained in supplemented DMEM.
Cells at passage 7–10 were serum-starved and maintained in EBM with 0.1% BSA (control media) for 20 hours before trypsinization to harvest the cells. Cells were washed in EBM twice and resuspended in control media at a concentration of 1×10^6 cells/ml. […] of cells were packed down and kept frozen. They were lysed and serially diluted by CyQuant reagent (Molecular Probe, Eugene, Oreg.) to be used for standard curve construction.
Transwell membrane (24-well polycarbonate membrane, […] from Corning Costar Corporation, Cambridge, Mass.) coated with Vitrogen (30 mg/ml, Invitrogen) on both sides was used for chemotactic migration experiments. Coated transwells were inverted, […] of cell suspension applied to the top of the membrane and covered by the bottom plate carefully so that the cell suspension stayed on top of the membrane. The cells were allowed to adhere to the coated membrane for two hours in an incubator at 37° C. with 5% CO2. After the adhesion incubation, the plates were re-inverted, the bottom wells were filled with 0.4 ml control media and the top wells were filled with 0.1 ml control media containing testing reagents. The plate was returned to the incubator for 3.5 hours for the cells to migrate. At the end of the incubation, the transwells were washed in PBS and the cells on the […] of the membrane (unmigrated cells) were wiped away with a cotton swab. The membranes were cut out by scalpel and placed into 96-well plates and frozen at −80° C. overnight. […] Fluorescence reading was done 16 hours later with a SpectraFluor plate reader with excitation at 485 nm and emission at […]. The number of cells migrated was then calculated based on the standard curve.

B16F10 tumor cell = B16F10 tumor cell proliferation in vitro; type: cell-based, murine

3TSR: recombinant protein containing all three TSRs of human TSP-1, amino acids 361–530
B16F10 tumor growth inhibition (in words) (B16F10 melanoma; 0.25 mg/kg/day IP daily): less effective
inhibition of B16F10 tumor growth (tumor volume) (B16F10 melanoma; 2.5 mg/kg/day IP daily): 81%
B16F10 tumor growth inhibition (in words) (B16F10 melanoma; 10 mg/kg/day): remains maximally active
B16F10 tumor growth inhibition compared with TSP-1 (in words) (B16F10 melanoma; dosages of 1.0 mg/kg/day and greater): more effective than TSP-1
inhibition of Lewis lung carcinoma tumor growth (Lewis lung carcinoma): 73%
concentration maximally effective in inhibiting endothelial cell migration ([1]; HDMEC migration in response to FGF-2): 10 ng/mL

TGFβ [reference compound]
B16F10 tumor cell proliferation in vitro (in words) (B16F10 tumor cell): inhibit

TSP-1: Human TSP-1 purified from the supernatant of thrombin-treated platelets
reduction of tumor growth (B16F10 melanoma; 0.25 mg/kg/day (0.6 nmoles/kg/day) injection): 56%
B16F10 tumor growth inhibition (in words) (B16F10 melanoma; 2.5 mg/kg/day IP daily): no effect
inhibition of tumor growth (B16F10 melanoma; systemic injection, 0.25 mg/ml as printed, twelfth treatment day): 56%
concentration up to which inhibition of endothelial cell migration is dose-dependent ([1]; biphasic response, concentrations above this level are less effective): 100 ng/mL

TSR2+QFK: recombinant version of the TSR2+RFK protein in which Q is substituted for R (arginine 413 to glutamine)
B16F10 tumor growth inhibition (in words) (B16F10 melanoma; 1.0 mg/kg/day IP daily, FIG. 8): less effective as an inhibitor of tumor growth than TSR2+RFK

B1: 3TSR (TSP2): recombinant protein with all three TSRs of mouse TSP-2, amino acids Asp 381 through Ile 550 (protein, listed as Mus musculus)
chain: DEGWSPWAEWTECSVTCGSGTQQRGRSCDVTSNTCLGPSIQTRTCSLGKCDTRIRQNGGWSHWSPWSSCSVTCGVGNVTRIRLCNSPVPQMGGKNCKGSGRETKPCQRDPCPIDGRWSPWSPWSACTVTCAGGIRERSRVCNSPEPQYGGKDCVGDVTEHQMCNKRSCPI
B16F10 tumor growth inhibition (in words) (B16F10 melanoma; 2.5 mg/kg/day IP daily): significantly less potent
